According to US10125134B2 (Mirati Therapeutics, Inc., priority 2016, dated 2018):
Like-named read-outs stand apart in the source and are kept apart here.

Key:
[1] = system: NCI-H358 cells (express KRas G12C), Phospho-ERK; test: Cellular inhibition of KRas G12C: Phospho-ERK in NCI-H358 cells; type: cell-based; settings: Homo sapiens, pERK(Thr202/Tyr204) normalized with GAPDH, NCI-H358 cells, 3 hours, read-out: IC50
Outline: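 IC50 derived by 4-parameter fit of GAPDH-normalized pERK(Thr202/Tyr204) signal, as percent of DMSO control. Signal came from in-cell immunodetection with infrared secondaries after 3 h compound exposure of KRas G12C NCI-H358 cells at 0.5% DMSO.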

KRas G12C = KRas G12C (Homo sapiens, UniProt P01116, C118S/C51S/C80L/G12C); test: KRas G12C Modification Assay (LCMS detection of covalent adduct); type: binding; settings: normalized percent of control; tested at 5 μM concentration for 3 hours
Outline: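 Covalent modification was read by reverse-phase LC/MS of intact protein after compound exposure, each reaction stopped at its time point with 25 mM acetic acid. Unmodified-protein signal, taken as percent of total, was normalised to untreated protein and reported as POC.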

Row | Structure (SMILES) | IC50 ([1]; NCI-H358, 3 h) | POC (KRas G12C) | IC50 [1]
1 | C=CC(=O)N1CCN(c2nc(OC[C@@H]3CCNC3)nc3c2CCN(c2cc(O)cc4ccccc24)C3)CC1 [Example 146, 1-[4-[7-(3-hydroxy-1-naphthyl)-2-[[(3R)-pyrrolidin-3-yl]methoxy]-6,8-dihydro-5H-pyrido[3,4-d]pyrimidin-4-yl]piperazin-1-yl]prop-2-en-1-one] | > 1 µM | B (“B”>25% POC−≤50% POC) | –
2 | C=CC(=O)N1CCN(c2nc(OCCCN3C[C@@H](F)[C@@H](F)C3)nc3c2CCN(c2cc(O)cc4ccccc24)C3)CC1 [Example 208, 1-(4-(2-(3-((3R,4S)-3,4-difluoropyrrolidin-1-yl)propoxy)-7-(3-hydroxynaphthalen-1-yl)-5,6,7,8-tetrahydropyrido[3,4-d]pyrimidin-4-yl)piperazin-1-yl)prop-2-en-1-one] | – | C (“C”>50% POC) | > 1 µM
3 | C=CC(=O)N1CCN(c2nc(OC[C@@H]3COCCN3C)nc3c2CCN(c2cccc4ccccc24)C3)CC1CC#N (stereo partly drawn) [Example 272, 2-(1-acryloyl-4-(2-(((S)-4-methylmorpholin-3-yl)methoxy)-7-(naphthalen-1-yl)-5,6,7,8-tetrahydropyrido[3,4-d]pyrimidin-4-yl)piperazin-2-yl)acetonitrile] | 0.0001 to 1 µM | C (“C”>50% POC) | –
4 | C=CC(=O)N1CCN(c2nc(OCCN(C)C)nc3c2CCN(c2cc(O)cc4ccccc24)C3)C[C@@H]1C [Example 14] | > 1 µM | C (“C”>50% POC) | –
5 | C=CC(=O)N1CCN(c2nc(OCC3CCN(CC(=O)N(C)C)C3)nc3c2CCN(c2cc(O)cc4ccccc24)C3)CC1 (stereo not drawn) [Example 140, 2-[3-[[7-(3-hydroxy-1-naphthyl)-4-(4-prop-2-enoylpiperazin-1-yl)-6,8-dihydro-5H-pyrido[3,4-d]pyrimidin-2-yl]oxymethyl]pyrrolidin-1-yl]-N,N-dimethyl-acetamide] | > 1 µM | C (“C”>50% POC) | –
6 | C=CC(=O)N1CCN(c2nc(OC[C@H]3CCC(C)(C)N3)nc3c2CCN(c2cc(O)cc4ccccc24)C3)CC1 [Example 174, (R)-1-(4-(2-((5,5-dimethylpyrrolidin-2-yl)methoxy)-7-(3-hydroxynaphthalen-1-yl)-5,6,7,8-tetrahydropyrido[3,4-d]pyrimidin-4-yl)piperazin-1-yl)prop-2-en-1-one] | > 1 µM | C (“C”>50% POC) | –
7 | C=CC(=O)N1C[C@@H](C)N(c2nc(OC[C@@H]3CCCN3C)nc3c2CCN(c2cccc4ccccc24)C3)C[C@@H]1CC#N [Example 378, 2-((2S,5R)-1-acryloyl-5-methyl-4-(2-(((S)-1-methylpyrrolidin-2-yl)methoxy)-7-(naphthalen-1-yl)-5,6,7,8-tetrahydropyrido[3,4-d]pyrimidin-4-yl)piperazin-2-yl)acetonitrile] | 0.0001 to 1 µM | C (“C”>50% POC) | –
8 | C=CC(=O)N1CC2(C1)CN(c1ncnc3c1CC(=O)N(c1cc(O)cc4ccccc14)C3)C2 [Example 114, 4-(6-acryloyl-2,6-diazaspiro[3.3]heptan-2-yl)-7-(3-hydroxynaphthalen-1-yl)-7,8-dihydropyrido[3,4-d]pyrimidin-6(5H)-one] | – | B (“B”>25% POC−≤50% POC) | > 1 µM
9 | C=CC(=O)N1CCN(c2nc(OC[C@@H]3CCCN3C)nc3c2CCN(c2ccccc2C(F)(F)F)C3)C[C@@H]1CC#N [Example 237, 2-((S)-1-acryloyl-4-(2-(((S)-1-methylpyrrolidin-2-yl)methoxy)-7-(2-(trifluoromethyl)phenyl)-5,6,7,8-tetrahydropyrido[3,4-d]pyrimidin-4-yl)piperazin-2-yl)acetonitrile 2,2,2-trifluoroacetate] | 0.0001 to 1 µM | C (“C”>50% POC) | –
10 | C=CC(=O)N1CCN(c2nc(OC[C@@H]3C[C@H](O)CN3C)nc3c2CCN(c2cccc4ccccc24)C3)CC1CC#N (stereo partly drawn) [Example 418, 2-(1-acryloyl-4-(2-(((2S,4S)-4-hydroxy-1-methylpyrrolidin-2-yl)methoxy)-7-(naphthalen-1-yl)-5,6,7,8-tetrahydropyrido[3,4-d]pyrimidin-4-yl)piperazin-2-yl)acetonitrile] | 0.0001 to 1 µM | C (“C”>50% POC) | –
11 | C=CC(=O)N1CCN(c2nc(OCCC(=O)N(C)C)nc3c2CCN(c2cccc4cccc(C)c24)C3)C[C@@H]1CC#N [Example 371, (S)-3-((4-(4-acryloyl-3-(cyanomethyl)piperazin-1-yl)-7-(8-methylnaphthalen-1-yl)-5,6,7,8-tetrahydropyrido[3,4-d]pyrimidin-2-yl)oxy)-N,N-dimethylpropanamide] | 0.0001 to 1 µM | C (“C”>50% POC) | –
12 | C=CC(=O)N1CCN(c2nc(O[C@H](C)CN(C)C)nc3c2CCN(c2cc(O)cc(Cl)c2C(C)C)C3)CC1 [Example 76, (R)-1-(4-(7-(3-chloro-5-hydroxy-2-isopropylphenyl)-2-((1-(dimethylamino)propan-2-yl)oxy)-5,6,7,8-tetrahydropyrido[3,4-d]pyrimidin-4-yl)piperazin-1-yl)prop-2-en-1-one] | – | C (“C”>50% POC) | > 1 µM
13 | C=CC(=O)N1CCN(c2nc(O[C@H](C)CN(C)C)nc3c2CCN(c2cc(OC(F)(F)F)ccc2O)C3)CC1 [Example 86, (R)-1-(4-(2-((1-(dimethylamino)propan-2-yl)oxy)-7-(2-hydroxy-5-(trifluoromethoxy)phenyl)-5,6,7,8-tetrahydropyrido[3,4-d]pyrimidin-4-yl)piperazin-1-yl)prop-2-en-1-one] | – | A (“A”≤25% POC) | > 1 µM
14 | C=CC(=O)N1CCN(c2nc(OC[C@@H]3CCN(C)C3)nc3c2CCN(c2cccc4cccc(Cl)c24)C3)C[C@@H]1CC#N [Example 361, 2-[(2S)-4-[7-(8-chloro-1-naphthyl)-2-[[(3R)-1-methylpyrrolidin-3-yl]methoxy]-6,8-dihydro-5H-pyrido[3,4-d]pyrimidin-4-yl]-1-prop-2-enoyl-piperazin-2-yl]acetonitrile] | 0.0001 to 1 µM | C (“C”>50% POC) | –
15 | C=CC(=O)N1CCN(c2nc(OC[C@@H]3CCCC(=O)N3)nc3c2CCN(c2cc(O)cc4ccccc24)C3)CC1 (single isomer, unassigned) [Example 61] | > 1 µM | C (“C”>50% POC) | –
16 | C=CC(=O)N1CCN(c2nc(OC[C@@H]3CCCN3C)nc3c2CCN(c2cccc4ccccc24)C3)CC1COC (stereo partly drawn) [Example 256, 1-(2-(methoxymethyl)-4-(2-(((S)-1-methylpyrrolidin-2-yl)methoxy)-7-(naphthalen-1-yl)-5,6,7,8-tetrahydropyrido[3,4-d]pyrimidin-4-yl)piperazin-1-yl)prop-2-en-1-one] | > 1 µM | C (“C”>50% POC) | –
17 | C=CC(=O)N1CCN(c2nc(OC(C)CCN(C)C)nc3c2CCN(c2cc(O)cc4ccccc24)C3)CC1 (stereo not drawn) [Example 21, 1-(4-(2-((4-(dimethylamino)butan-2-yl)oxy)-7-(3-hydroxynaphthalen-1-yl)-5,6,7,8-tetrahydropyrido[3,4-d]pyrimidin-4-yl)piperazin-1-yl)prop-2-en-1-one] | 0.0001 to 1 µM | C (“C”>50% POC) | –
18 | C=CC(=O)N1CCN(c2nc(OC[C@H]3CCCN3C)nc3c2CCN(c2cccc(F)c2C(F)(F)F)C3)C[C@@H]1CC#N [Example 274, 2-((S)-1-acryloyl-4-(7-(3-fluoro-2-(trifluoromethyl)phenyl)-2-(((R)-1-methylpyrrolidin-2-yl)methoxy)-5,6,7,8-tetrahydropyrido[3,4-d]pyrimidin-4-yl)piperazin-2-yl)acetonitrile] | 0.0001 to 1 µM | C (“C”>50% POC) | –
